According to patent publication US20130005670A1, “COMBINATION COMPOSITION, COMPRISING AS ACTIVE INGREDIENTS L-CARNITlNE OR PROPIONYL L-CARNITlNE, FOR THE PREVENTION OR TREATMENT OF CHRONIC VENOUS INSUFFICIENCY” (SIGMA-TAU INDUSTRIE FARMACEUTICHE RIUNITE S.P.A., priority 2010, published 2013):

Legend:
[1] = tested on: aortic rings precontracted by phenylephrine; test: relaxant effect on aortic rings precontracted by phenylephrine; design: species or system spontaneously hypertensive rats; conditions: 100 micro-molar each component, final concentration in organ chamber; SHR aortic rings precontracted by phenylephrine (1 micromolar); n=8
Experimental: Relaxant Effect on Aortic Rings of the Compounds Tested. The objective of this study was to investigate the vasoarelaxation effects of the compositions of the invention using isolated aorta from spontaneously hypertensive rats. The compounds tested were used at a concentration expressed as final concentration in the organ chamber. Male spontaneously hypertensive rats (SHR) 10-12 weeks old, weighing 250-300 g, were housed at 24±2° C. with 60±20% relative humidity, on a 12-h light-dark cycle. Rats were given free access to a diet of standard food and water. All experiments were performed according to the guidelines for the ethical treatment of animals of the European Union. The rats were killed by cervical dislocation and the aortae were rapidly dissected. The descending thoracic aorta was placed in a modified Krebs-Henseleit solution (PSS) containing (mM): NaCl 118, KCl 4.75, NaHCO3 25, MgSO4 1.2, CaCl2 1.8, KH2PO4 1.2 and glucose 11. After excess fat and connective tissue were removed, the aortae were cut into 2-3-mm rings. Aortic rings were mounted under a basal tension of 2 g in 20 mL organ baths containing PSS and attached to an isometric transducer (Harvard UF-1); the signal was recorded by a Powerlab data acquisition system (AD-Instruments). The tissue bath was maintained at 37° C. and bubbled with a 95% O2 and 5% CO2 gas mixture. The relaxant effect of compounds tested was assessed by adding the compound to aortic rings precontracted by phenylephrine (1 micromolar). After the aortae were contracted with phenylephrine and when the contractile response was reached, the test compound was added to the bath. All the results were expressed as a percentage of the maximal contraction of phenylephrine-induced responses. Results are expressed as percentages from the initial precontraction level. The significance was calculated on the actual contraction values means±SE (n=8 aorta preparations per group). Eight preparations were studied from a single aorta. The Student t-test was used as the comparison test for statistical analysis.

[2] = tested on: croton oil-induced hemorrhoid model in rats; test: croton oil-induced hemorrhoid model in rats (recto-anus coefficient); type: in vivo, rat; conditions: 24 hours after induction with croton oil (3%); oral once per day for five days; 20 mg/kg propionyl L-carnitine or L-carnitine, 30 mg/kg troxerutine, diosmine or hesperidine; RAC = weight of recto-anus (mg)/body weight (g); n = 5 rats
Experimental: Reduction of the Swelling of the Recto-Anus, in Croton Oil-Induced Hemorrhoid Model in Rats.
Male SD rats (6 weeks old, approximately 140 g) were purchased from Harlan Sprague Dawley and allowed to acclimate for 1 week. The rats were maintained in a pathogen-free facility in accordance with the National Research Council of Laboratory Animal care and use guidelines. Each experiment was preformed with age-matched rats 7-8 weeks old. The croton oil-induced hemorrhoid model in rats was performed according to the method published by Nishiki (Nishiki et al. (1988) Folia Pharmacology Japan 92:215-225; Nishiki et al. (1988) Folia Pharmacol. Japan 92:227-240). Briefly, a cotton swab with a diameter of 4 mm soaked with 0.16 mL of inducer (deionized water: pyridine: ethyl ether: 6% croton oil/ethyl ether (1:4:5:10) was applied to the rat's anus for 12 seconds. The final concentration of croton oil was 3%. The edema developed linearly until 7-8 hours after application and the severity of the edema was sustained for more than 24 hours. Twenty-four hours later, recto-anus tissue (approx. 10 mm long) was isolated after the rats were euthanized. The weights of rat body and recto-anus were measured. The recto-anus coefficient (RAC) was calculated using the formula: weight of recto-anus (mg)/body weight (g).
The compounds of the invention were administered orally suspended in saline (1 mL) once per day for five days. Last treatment with the compounds of the invention was made the day of induction of oedema with croton oil.
The compounds of the invention were administered alone or in combination at the following doses: 20 mg/kg propionyl L-carnitine or L-carnitine; 30 mg/kg troxerutine, diosmine or hesperidine.
Twenty-four hours after hemorrhoid induction with croton oil the RAC of rats was determined.

Row | Compound | % RELAXATION [1] [%] | RAC (recto-anus coefficient) [2]
1 | COc1ccc(-c2cc(=O)c3c(O)cc(O[C@@H]4O[C@H](CO[C@@H]5O[C@@H](C)[C@H](O)[C@@H](O)[C@H]5O)[C@@H](O)[C@H](O)[C@H]4O)cc3o2)cc1O [Diosmine, diosmine] | 10 | 2.02
2 | COc1ccc([C@@H]2CC(=O)c3c(O)cc(O[C@@H]4O[C@H](CO[C@@H]5O[C@@H](C)[C@H](O)[C@@H](O)[C@H]5O)[C@@H](O)[C@H](O)[C@H]4O)cc3O2)cc1O [Hesperidine, hesperidine] | 9 | 2.07
3 | C[N+](C)(C)C[C@H](O)CC(=O)[O-] [L-carnitine] | 25 | 1.99
4 | CCC(=O)O[C@H](CC(=O)[O-])C[N+](C)(C)C [Propionyl L-carnitine, propionyl L-carnitine] | 28 | 1.96
5 | C[C@@H]1O[C@@H](OC[C@H]2O[C@@H](Oc3c(-c4ccc(OCCO)c(OCCO)c4)oc4cc(OCCO)cc(O)c4c3=O)[C@H](O)[C@@H](O)[C@@H]2O)[C@H](O)[C@H](O)[C@H]1O [Troxerutine] | 10 | 2.11
